From patent publication US20100234379A1, “Dual modulation of endocannabinoid transport and fatty-acid amide hydrolase for treatment of excitotoxicity” (priority 2005, published 2010)

system: AMPA-injected dorsal hippocampus of adult Sprague-Dawley rats; assay: not given; type: in vivo, rat; conditions: co-injected with 63 nmol AMPA; 4-7 days post-injection

Q: Which “protection of postsynaptic GluR1 levels (reduction of GluR1 decline), average” value does the source give for CCCCC/C=C\C/C=C\C/C=C\C/C=C\CCCC(=O)N[C@H](C)CO [A, R-methanandamide] here?
A: 58%

same assay, conditions: co-injected with 63 nmol AMPA; A 250 nmol; B 0.75 nmol and C 75 nmol

Q: With CCCCC/C=C\C/C=C\C/C=C\C/C=C\CCCC(=O)N[C@H](C)CO [A, R-methanandamide] as the molecule, how does the “reduction of spectrin BDPN evident 4-7 days post-insult” value read?
A: 78%

same assay, conditions: co-injected with AMPA, 4-7 days

Q: Which “protection of presynaptic markers (synapsin II, synaptophysin)” value does the source give for CCCCC/C=C\C/C=C\C/C=C\C/C=C\CCCC(=O)N[C@H](C)CO [A, R-methanandamide] here?
A: protected by a similar level

system: not given; assay: not given; conditions: not given

Q: For O=S(=O)(F)CCCCCCCc1ccc(OCc2ccccc2)cc1, which melting point is on record?
A: 35 to 38 °C

Q: Which melting point does the source give for O=S(=O)(F)CCCCCc1ccc(OCc2ccccc2)cc1 here?
A: 66 to 68 °C

Q: Which melting point does the source give for O=S(=O)(F)CCCCCCCc1ccc(O)cc1 here?
A: 47 to 51 °C

Q: For O=S(=O)(F)CCCCCc1ccc(O)cc1, which melting point is on record?
A: 32 to 35 °C

Q: For O=S(=O)(F)CCCCOc1ccccc1, which melting point is on record?
A: 74 to 76 °C

Q: For COS(=O)(=O)CCCCCCCc1ccc(OCc2ccccc2)cc1, which melting point is on record?
A: 57 to 59 °C

Q: Which melting point does the source give for O=C(CCCOc1ccc(OCc2ccccc2)cc1)C(F)(F)F here?
A: 59 to 61 °C

Q: Which melting point does the source give for O=C(CCCCCOc1ccccc1OCc1ccccc1)C(F)(F)F here?
A: 31 to 32 °C

Q: For O=C(CCCCOc1ccccc1)C(F)(F)F, which melting point is on record?
A: 50 to 51 °C

Q: For O=C(CCCCOc1ccc(OCc2ccccc2)cc1)C(F)(F)F, which melting point is on record?
A: 95.5 to 96 °C

Q: Which melting point does the source give for O=C(CCCCCOc1ccc(OCc2ccccc2)cc1)C(F)(F)F here?
A: 59 to 60 °C

Q: With O=C(CCCCCCOc1ccc(OCc2ccccc2)cc1)C(F)(F)F as the molecule, how does the melting point read?
A: 82 to 83 °C

Q: For O=C(CCCOc1ccccc1OCc1ccccc1)C(F)(F)F, which melting point is on record?
A: 50 to 51 °C

Q: With O=C(CCCCOc1ccc(O)cc1)C(F)(F)F as the molecule, how does the melting point read?
A: 63 to 64 °C

Q: For O=C(CCCCCCOc1ccc(O)cc1)C(F)(F)F, which melting point is on record?
A: 61 to 62 °C

Q: For O=C(CCCCOc1ccccc1O)C(F)(F)F, which melting point is on record?
A: 51 to 52 °C

Q: Which melting point does the source give for O=C(NCCCc1ccccc1)NCc1ccccn1 here?
A: 89 to 90 °C

Q: Which melting point does the source give for O=C(NCCCc1ccccc1)Nc1ccccn1 here?
A: 127 to 128 °C

Q: With Cc1nnc(C(=O)CCCCCCOc2ccccc2)o1 as the molecule, how does the melting point read?
A: 75 to 77 °C

Q: For Cc1nnc(C(=O)CCCCCCOc2ccc(OCc3ccccc3)cc2)o1, which melting point is on record?
A: 118 to 120 °C

Q: With Cc1nnc(C(=O)CCCCCCOc2ccc(O)cc2)o1 as the molecule, how does the melting point read?
A: 134 to 135 °C

Q: For O=C1c2ccccc2S(=O)(=O)N1CCCCOc1ccccc1, which melting point is on record?
A: 92 to 94 °C

Q: Which melting point does the source give for O=C1c2ccccc2S(=O)(=O)N1CCCCOc1ccc(OCc2ccccc2)cc1 here?
A: 82 to 84 °C

Q: Which melting point does the source give for O=C1c2ccccc2S(=O)(=O)N1CCCCOc1ccc(O)cc1 here?
A: 107 to 109 °C

Q: Which melting point does the source give for Oc1cccc(OCCCC(O)(O)C(F)(F)F)c1 (hydrate or solvate) here?
A: 76 to 77 °C

system: hippocampal slice cultures; assay: In vitro excitotoxicity: AMPA insult in cultured hippocampal slices, immunoblot for BDPN and GluR1; conditions: 100 μM AMPA 20 min, drug post-insult, 24 h; B/C 0.5 μM and 50 μM
Experimental: Hippocampal slice cultures were infused with an excitotoxic level of AMPA for 20 min, followed by a 10-min washout period. […] The slices were harvested 24 h post-insult in groups of 6-8 each, along with untreated sister cultures, and assessed by immunoblotting for calpain-mediated spectrin breakdown product BDPN (A, C) and the postsynaptic marker GluR1 (B, D). Representative antigen staining is shown with a protein load control (con) from the same blots. Graphs contain integrated optical densities (mean±SEM) as determined by image analysis.
Chemicals and antibodies. […] Glutamatergic ligands and antagonists were obtained from Tocris (Ellisville, Mo.). […] Hippocampal slice cultures. Sprague-Dawley rats (Charles River Laboratories; Wilmington, Mass.) were housed following guidelines from National Institutes of Health. […] Slices were maintained in culture for a 15-20-day maturation period before experiments were initiated. […] Integrated optical density of the bands was determined at high resolution with BIOQUANT software (R & M Biometrics, Nashville, Tenn.). […] At such time, slices were rapidly harvested, homogenized in lysis buffer, and analyzed by immunoblot for BDPN, GluR1, and protein load control.

Q: For CCCCC/C=C\C/C=C\C/C=C\C/C=C\CCCC(=O)N[C@H](C)CO [A, R-methanandamide], which “reduction of cytoskeletal damage (calpain-mediated spectrin breakdown product BDPN)” value is on record?
A: 72%

system: ERK and FAK (pERK2, pFAK); assay: Activation of ERK and FAK (CB1 signaling) in hippocampal slice cultures, immunoblot; type: cell-based, rat; conditions: H 10 μM
Experimental: A: Untreated slices were used to determine basal antigen levels (lane 1), while other slices were exposed to the CB1 agonist R-methanandamide (A) in the absence (lane 2) or presence of the antagonist H (lane 3). B: Integrated optical densities for pERK2 (mean±SEM) were determined by image analysis (ANOVA: P=0.014). C: Treatment groups include control slices (lane 1) and slices treated with the FAAH inhibitor B (lane 2), the transporter inhibitor C (lane 3), the B/C combination (lane 4), or B/C with 20 μM F (lane 5). D: Image analysis data for pERK2 are shown (ANOVA: P=0.015).
Hippocampal slice cultures. Sprague-Dawley rats (Charles River Laboratories; Wilmington, Mass.) were housed following guidelines from National Institutes of Health. […] Slices were maintained in culture for a 15-20-day maturation period before experiments were initiated. Activation of extracellular signal regulated-kinase (ERK) and focal adhesion kinase (FAK). […] Other slices were treated with 100-500 nM B, 10-50 μM C, or a combination of the two in the absence or presence of either H or F (Cal-Biochem). […] Integrated optical density of the bands was determined at high resolution with BIOQUANT software (R & M Biometrics, Nashville, Tenn.). […]

Q: For Cc1c(C(=O)NN2CCOCC2)nn(-c2ccc(Cl)cc2Cl)c1-c1ccc(I)cc1 [H], which “prevention of the effects of agonist treatment and of B/C potentiation on ERK/FAK activation by CB1 antagonist” value is on record?
A: prevented

same assay, conditions: slices treated 30 min; A 10-50 μM; 100 nM B and 10 μM C applied individually; B/C combination

Q: With CCCCC/C=C\C/C=C\C/C=C\C/C=C\CCCC(=O)N[C@H](C)CO [A, R-methanandamide] as the molecule, how does the “activation of ERK and FAK (pERK2, pFAK over basal levels)” value read?
A: results in the activation of extracellular signal regulated-kinase (ERK) as well as focal adhesion kinase (FAK)
